According to PubChem BioAssay (NCI):
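At the GI50, growth is halved. TGI is the concentration that stops growth completely.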

What was measured:
Assay in all cases: DTP human tumour cell line panel, 384-well format
MDA-MB-231 breast = tested on: MDA-MB-231 breast
CCRF-CEM leukemia = tested on: CCRF-CEM leukemia
SF-295 CNS = tested on: SF-295 CNS
T-47D breast = tested on: T-47D breast
RPMI-8226 leukemia = tested on: RPMI-8226 leukemia
MDA-MB-468 breast = tested on: MDA-MB-468 breast
UACC-62 melanoma = tested on: UACC-62 melanoma
MALME-3M melanoma = tested on: MALME-3M melanoma
LOX IMVI melanoma = tested on: LOX IMVI melanoma
KM12 colon = tested on: KM12 colon
OVCAR-4 ovarian = tested on: OVCAR-4 ovarian
SNB-75 CNS = tested on: SNB-75 CNS
MDA-MB-435 melanoma = tested on: MDA-MB-435 melanoma
HCT-116 colon = tested on: HCT-116 colon
NCI-H322M lung = tested on: NCI-H322M lung
HCT-15 colon = tested on: HCT-15 colon
BT-549 breast = tested on: BT-549 breast
PC-3 prostate = tested on: PC-3 prostate
K-562 leukemia = tested on: K-562 leukemia
SK-MEL-28 melanoma = tested on: SK-MEL-28 melanoma
CAKI-1 renal = tested on: CAKI-1 renal
MCF7 breast = tested on: MCF7 breast
HOP-92 NSCLC = tested on: HOP-92 NSCLC
HS 578T breast = tested on: HS 578T breast
UO-31 renal = tested on: UO-31 renal
IGROV1 ovarian = tested on: IGROV1 ovarian
SF-268 CNS = tested on: SF-268 CNS
SK-MEL-5 melanoma = tested on: SK-MEL-5 melanoma
OVCAR-8 ovarian = tested on: OVCAR-8 ovarian
HOP-62 NSCLC = tested on: HOP-62 NSCLC
NCI-H23 lung = tested on: NCI-H23 lung
DU-145 prostate = tested on: DU-145 prostate
NCI/ADR-RES ovarian = tested on: NCI/ADR-RES ovarian
UACC-257 melanoma = tested on: UACC-257 melanoma
SK-OV-3 ovarian = tested on: SK-OV-3 ovarian
ACHN renal = tested on: ACHN renal
NCI-H226 lung = tested on: NCI-H226 lung
NCI-H522 lung = tested on: NCI-H522 lung
A549 NSCLC = tested on: A549 NSCLC
M14 melanoma = tested on: M14 melanoma
SF-539 CNS = tested on: SF-539 CNS
TK-10 renal = tested on: TK-10 renal
A498 renal = tested on: A498 renal
HCC-2998 colon = tested on: HCC-2998 colon
HT29 colon = tested on: HT29 colon
SN12C renal = tested on: SN12C renal
HL-60(TB) leukemia = tested on: HL-60(TB) leukemia
SW-620 colon = tested on: SW-620 colon
OVCAR-3 ovarian = tested on: OVCAR-3 ovarian
SNB-19 CNS = tested on: SNB-19 CNS
EKVX NSCLC = tested on: EKVX NSCLC
NCI-H460 NSCLC = tested on: NCI-H460 NSCLC
MOLT-4 leukemia = tested on: MOLT-4 leukemia
786-0 renal = tested on: 786-0 renal
COLO 205 colon = tested on: COLO 205 colon
OVCAR-5 ovarian = tested on: OVCAR-5 ovarian
RXF 393 renal = tested on: RXF 393 renal
U251 glioblastoma = tested on: U251 glioblastoma

NC(=O)[C@@H](CCC(F)(F)F)N(Cc1ccc(-c2ncon2)cc1F)S(=O)(=O)c1ccc(Cl)cc1 was tested. Which GI50 (MDA-MB-231 breast) did it give?
Its GI50 is 14.6 µM.

What about the TGI (MDA-MB-231 breast) of the same molecule?
Its TGI is 28.5 µM.

And the GI50 (CCRF-CEM leukemia)?
Its GI50 is 11.6 µM.

What about the TGI (CCRF-CEM leukemia) of the same molecule?
Its TGI is 23.8 µM.

And the GI50 (SF-295 CNS)?
Its GI50 is 17 µM.

And the TGI (SF-295 CNS)?
The TGI was 31 µM.

What about the GI50 (T-47D breast) of the same molecule?
The GI50 was 2150 nM.

What about the TGI (T-47D breast) of the same molecule?
The TGI was 10.5 µM.

What about the GI50 (RPMI-8226 leukemia) of the same molecule?
Its GI50 is 13.6 µM.

And the TGI (RPMI-8226 leukemia)?
Its TGI is 26.6 µM.

What about the GI50 (MDA-MB-468 breast) of the same molecule?
The GI50 was 3.28 µM.

What about the TGI (MDA-MB-468 breast) of the same molecule?
The TGI was 22.1 µM.

What about the GI50 (UACC-62 melanoma) of the same molecule?
Its GI50 is 11.4 µM.

What about the TGI (UACC-62 melanoma) of the same molecule?
Its TGI is 23.6 µM.

And the GI50 (MALME-3M melanoma)?
The GI50 was 13.4 µM.

What about the TGI (MALME-3M melanoma) of the same molecule?
Its TGI is 26.2 µM.

What about the GI50 (LOX IMVI melanoma) of the same molecule?
The GI50 was 14.4 µM.

What about the TGI (LOX IMVI melanoma) of the same molecule?
Its TGI is 27.8 µM.

What about the GI50 (KM12 colon) of the same molecule?
The GI50 was 15 µM.

And the TGI (KM12 colon)?
Its TGI is 28.7 µM.

And the GI50 (OVCAR-4 ovarian)?
Its GI50 is 14.7 µM.

What about the TGI (OVCAR-4 ovarian) of the same molecule?
The TGI was 28.1 µM.

And the GI50 (SNB-75 CNS)?
The GI50 was 14.1 µM.

And the TGI (SNB-75 CNS)?
The TGI was 28.1 µM.

What about the GI50 (MDA-MB-435 melanoma) of the same molecule?
Its GI50 is 13.5 µM.

What about the TGI (MDA-MB-435 melanoma) of the same molecule?
Its TGI is 26.8 µM.

And the GI50 (HCT-116 colon)?
Its GI50 is 15.2 µM.

And the TGI (HCT-116 colon)?
The TGI was 28.8 µM.

What about the GI50 (NCI-H322M lung) of the same molecule?
The GI50 was 15 µM.

And the TGI (NCI-H322M lung)?
Its TGI is 29.5 µM.

And the GI50 (HCT-15 colon)?
The GI50 was 15.4 µM.

And the TGI (HCT-15 colon)?
The TGI was 29.9 µM.

What about the GI50 (BT-549 breast) of the same molecule?
The GI50 was 17.2 µM.

And the TGI (BT-549 breast)?
The TGI was 32.2 µM.

And the GI50 (PC-3 prostate)?
The GI50 was 12.7 µM.

And the TGI (PC-3 prostate)?
Its TGI is 25.8 µM.

And the GI50 (K-562 leukemia)?
The GI50 was 13.5 µM.

And the TGI (K-562 leukemia)?
Its TGI is 26.7 µM.

What about the GI50 (SK-MEL-28 melanoma) of the same molecule?
The GI50 was 18.1 µM.

And the TGI (SK-MEL-28 melanoma)?
Its TGI is 32.1 µM.

What about the GI50 (CAKI-1 renal) of the same molecule?
The GI50 was 15.9 µM.

What about the TGI (CAKI-1 renal) of the same molecule?
The TGI was 30.9 µM.

And the GI50 (MCF7 breast)?
Its GI50 is 14.5 µM.

And the TGI (MCF7 breast)?
Its TGI is 28.3 µM.

What about the GI50 (HOP-92 NSCLC) of the same molecule?
Its GI50 is 13.1 µM.

And the TGI (HOP-92 NSCLC)?
Its TGI is 26.2 µM.

What about the GI50 (HS 578T breast) of the same molecule?
Its GI50 is 12.6 µM.

What about the TGI (HS 578T breast) of the same molecule?
Its TGI is 25.2 µM.

What about the GI50 (UO-31 renal) of the same molecule?
Its GI50 is 13 µM.

And the TGI (UO-31 renal)?
Its TGI is 25.9 µM.

And the GI50 (IGROV1 ovarian)?
The GI50 was 16.4 µM.

And the TGI (IGROV1 ovarian)?
The TGI was 30.5 µM.

What about the GI50 (SF-268 CNS) of the same molecule?
The GI50 was 13 µM.

What about the TGI (SF-268 CNS) of the same molecule?
Its TGI is 25.8 µM.

What about the GI50 (SK-MEL-5 melanoma) of the same molecule?
The GI50 was 12.9 µM.

What about the TGI (SK-MEL-5 melanoma) of the same molecule?
Its TGI is 25.8 µM.

What about the GI50 (OVCAR-8 ovarian) of the same molecule?
Its GI50 is 17.1 µM.

And the TGI (OVCAR-8 ovarian)?
The TGI was 31 µM.

What about the GI50 (HOP-62 NSCLC) of the same molecule?
The GI50 was 14.7 µM.

What about the TGI (HOP-62 NSCLC) of the same molecule?
The TGI was 28.1 µM.

And the GI50 (NCI-H23 lung)?
The GI50 was 14.6 µM.

And the TGI (NCI-H23 lung)?
Its TGI is 28.6 µM.

And the GI50 (DU-145 prostate)?
Its GI50 is 19 µM.

And the TGI (DU-145 prostate)?
Its TGI is 36.4 µM.

What about the GI50 (NCI/ADR-RES ovarian) of the same molecule?
Its GI50 is 17.1 µM.

And the TGI (NCI/ADR-RES ovarian)?
Its TGI is 32 µM.

And the GI50 (UACC-257 melanoma)?
The GI50 was 14.1 µM.

What about the TGI (UACC-257 melanoma) of the same molecule?
The TGI was 27.3 µM.

And the GI50 (SK-OV-3 ovarian)?
The GI50 was 17.5 µM.

What about the TGI (SK-OV-3 ovarian) of the same molecule?
Its TGI is 34.4 µM.

And the GI50 (ACHN renal)?
Its GI50 is 16 µM.

What about the TGI (ACHN renal) of the same molecule?
The TGI was 30 µM.

And the GI50 (NCI-H226 lung)?
The GI50 was 14.4 µM.

What about the TGI (NCI-H226 lung) of the same molecule?
Its TGI is 28.3 µM.

What about the GI50 (NCI-H522 lung) of the same molecule?
Its GI50 is 17.7 µM.

And the TGI (NCI-H522 lung)?
Its TGI is 31.6 µM.

And the GI50 (A549 NSCLC)?
Its GI50 is 14.6 µM.

What about the TGI (A549 NSCLC) of the same molecule?
The TGI was 28.1 µM.

What about the GI50 (M14 melanoma) of the same molecule?
Its GI50 is 12.5 µM.

What about the TGI (M14 melanoma) of the same molecule?
Its TGI is 25.1 µM.

And the GI50 (SF-539 CNS)?
Its GI50 is 17.7 µM.

What about the TGI (SF-539 CNS) of the same molecule?
Its TGI is 31.7 µM.

What about the GI50 (TK-10 renal) of the same molecule?
The GI50 was 18.3 µM.

What about the TGI (TK-10 renal) of the same molecule?
Its TGI is 36.4 µM.

What about the GI50 (A498 renal) of the same molecule?
Its GI50 is 17.7 µM.

What about the TGI (A498 renal) of the same molecule?
The TGI was 31.8 µM.

And the GI50 (HCC-2998 colon)?
Its GI50 is 3.09 µM.

And the TGI (HCC-2998 colon)?
The TGI was 12.6 µM.

And the GI50 (HT29 colon)?
Its GI50 is 14.2 µM.

What about the TGI (HT29 colon) of the same molecule?
Its TGI is 27.4 µM.

What about the GI50 (SN12C renal) of the same molecule?
The GI50 was 16.7 µM.

And the TGI (SN12C renal)?
The TGI was 30.5 µM.

And the GI50 (HL-60(TB) leukemia)?
The GI50 was 14 µM.

And the TGI (HL-60(TB) leukemia)?
The TGI was 27.1 µM.

What about the GI50 (SW-620 colon) of the same molecule?
The GI50 was 17.6 µM.

What about the TGI (SW-620 colon) of the same molecule?
Its TGI is 32.5 µM.

What about the GI50 (OVCAR-3 ovarian) of the same molecule?
Its GI50 is 15.6 µM.

And the TGI (OVCAR-3 ovarian)?
Its TGI is 29.1 µM.

What about the GI50 (SNB-19 CNS) of the same molecule?
Its GI50 is 16.9 µM.

And the TGI (SNB-19 CNS)?
Its TGI is 31.5 µM.

And the GI50 (EKVX NSCLC)?
Its GI50 is 15.8 µM.

And the TGI (EKVX NSCLC)?
Its TGI is 31.4 µM.

And the GI50 (NCI-H460 NSCLC)?
The GI50 was 15.5 µM.

What about the TGI (NCI-H460 NSCLC) of the same molecule?
The TGI was 29.2 µM.

And the GI50 (MOLT-4 leukemia)?
The GI50 was 5.98 µM.

And the TGI (MOLT-4 leukemia)?
Its TGI is 19.8 µM.

And the GI50 ([…]-0 renal)?
Its GI50 is 14.4 µM.

What about the TGI (786-0 renal) of the same molecule?
The TGI was 27.6 µM.

What about the GI50 (COLO 205 colon) of the same molecule?
The GI50 was 15.5 µM.

And the TGI (COLO 205 colon)?
The TGI was 30.2 µM.

What about the GI50 (OVCAR-5 ovarian) of the same molecule?
Its GI50 is 17.7 µM.

And the TGI (OVCAR-5 ovarian)?
Its TGI is 33.8 µM.

What about the GI50 (RXF 393 renal) of the same molecule?
The GI50 was 11.7 µM.

What about the TGI (RXF 393 renal) of the same molecule?
The TGI was 23.9 µM.

What about the GI50 (U251 glioblastoma) of the same molecule?
The GI50 was 17.3 µM.

And the TGI (U251 glioblastoma)?
The TGI was 31.1 µM.
